Laboratory results from paper doi:10.1101/2023.08.20.554024v1, “Structural framework for the understanding spectroscopic and functional signatures of the cyanobacterial Orange Carotenoid Protein families” (biorxiv, 2023).

Columns and labels:
[1] = biological target: T1, SynOCP1 (Synechocystis sp. PCC 6803, UniProt P74102); experiment: absorbance spectrum and photocycle of the holoprotein; format: binding; details: bound in E. coli making echinenone; pH 7.6, 150 mM NaCl
T1 construct: gene slr1963; full length from E. coli, tag removed, from earlier work; monomer in solution
T1 sequence (P74102 2-317): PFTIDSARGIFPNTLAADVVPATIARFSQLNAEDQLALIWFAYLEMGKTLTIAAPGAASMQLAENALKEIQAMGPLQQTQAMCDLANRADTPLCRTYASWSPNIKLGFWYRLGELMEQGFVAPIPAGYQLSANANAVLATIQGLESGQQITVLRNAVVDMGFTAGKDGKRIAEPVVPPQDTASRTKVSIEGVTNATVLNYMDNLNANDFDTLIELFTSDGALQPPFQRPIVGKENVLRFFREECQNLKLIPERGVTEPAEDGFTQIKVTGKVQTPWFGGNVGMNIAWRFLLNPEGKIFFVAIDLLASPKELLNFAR

[2] = biological target: T2, CrinOCP2 (Crinalium epipsammum, UniProt K9VSN3, E26A); experiment: X-ray crystal structure, […] A; format: binding; details: bound in E. coli making echinenone; crystals pH 6.5; carotenoid site between NTD and CTD, keto group at Tyr201/Trp288
T2 construct: gene Cri9333_0045; full length from E. coli C41(DE3), codon-optimized, pET28a+, His-tag cut by thrombin leaving N-terminal GSH; monomer
T2 sequence (K9VSN3 1-319 E26A): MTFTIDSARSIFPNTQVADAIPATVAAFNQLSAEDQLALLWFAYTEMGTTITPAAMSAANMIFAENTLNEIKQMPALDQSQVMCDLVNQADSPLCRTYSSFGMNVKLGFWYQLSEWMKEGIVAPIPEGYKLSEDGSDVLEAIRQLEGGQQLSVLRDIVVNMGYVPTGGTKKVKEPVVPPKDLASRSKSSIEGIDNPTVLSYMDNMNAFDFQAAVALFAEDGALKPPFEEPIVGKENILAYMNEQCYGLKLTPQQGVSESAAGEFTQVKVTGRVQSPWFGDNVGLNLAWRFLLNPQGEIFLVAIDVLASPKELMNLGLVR

CC1=C(/C=C/C(C)=C/C=C/C(C)=C/C=C/C=C(C)/C=C/C=C(C)/C=C/C2=C(C)C(=O)CCC2(C)C)C(C)(C)CCC1 [ECH, echinenone]
absorbance spectrum and photocycle of the holoprotein [1]: All proteins were ECH-bound. | X-ray crystal structure, 2.2 A [2]: HPLC analysis indicated that both OCP2 variants contained ECH as the predominant carotenoid
